According to ChEMBL document CHEMBL1156642, “Discovery of betamethasone 17alpha-carbamates as dissociated glucocorticoid receptor modulators in the rat” (Bioorg Med Chem, 2008):
pEC50, pIC50: −log10 of the molar value.

Columns and labels:
Progesterone receptor = target: T1, Progesterone receptor (Homo sapiens, UniProt P06401); assay: Inhibition of human progesterone receptor
T1 sequence (P06401 whole entry): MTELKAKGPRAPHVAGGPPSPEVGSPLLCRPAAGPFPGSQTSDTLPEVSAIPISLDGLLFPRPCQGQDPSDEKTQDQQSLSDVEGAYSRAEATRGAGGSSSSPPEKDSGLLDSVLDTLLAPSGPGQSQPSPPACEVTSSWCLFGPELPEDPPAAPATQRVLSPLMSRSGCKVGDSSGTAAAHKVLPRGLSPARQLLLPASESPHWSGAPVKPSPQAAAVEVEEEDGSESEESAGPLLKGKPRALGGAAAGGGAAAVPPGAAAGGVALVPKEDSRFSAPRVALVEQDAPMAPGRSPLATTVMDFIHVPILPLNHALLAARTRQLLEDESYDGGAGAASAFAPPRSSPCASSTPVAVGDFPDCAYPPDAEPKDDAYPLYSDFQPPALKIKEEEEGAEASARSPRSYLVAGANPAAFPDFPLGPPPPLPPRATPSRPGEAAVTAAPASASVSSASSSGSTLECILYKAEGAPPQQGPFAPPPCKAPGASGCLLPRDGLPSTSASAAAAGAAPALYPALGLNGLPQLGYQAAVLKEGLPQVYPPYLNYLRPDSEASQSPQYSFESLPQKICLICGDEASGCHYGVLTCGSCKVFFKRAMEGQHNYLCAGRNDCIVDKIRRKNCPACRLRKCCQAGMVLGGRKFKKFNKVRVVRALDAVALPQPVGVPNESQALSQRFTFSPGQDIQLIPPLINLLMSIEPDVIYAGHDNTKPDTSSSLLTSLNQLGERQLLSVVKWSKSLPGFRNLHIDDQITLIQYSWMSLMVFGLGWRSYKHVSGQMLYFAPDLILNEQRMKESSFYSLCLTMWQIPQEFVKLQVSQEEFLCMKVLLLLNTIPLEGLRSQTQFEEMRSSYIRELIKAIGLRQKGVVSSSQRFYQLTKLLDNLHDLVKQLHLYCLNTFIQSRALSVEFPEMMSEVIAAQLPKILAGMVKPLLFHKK

Rattus norvegicus = organism: Rattus norvegicus; assay: Transactivation activity of glutamine synthase in rat skeletal muscle cells relative to Dexamethasone; assay type: cell-based
[1] = Transactivation activity of glutamine synthase in rat skeletal muscle cells; assay type: cell-based
[2] = target: T2, Interstitial collagenase (Homo sapiens) (UniProt P03956); assay: Inhibition of glucocorticoid-mediated human MMP1 expression in PMA stimulated A549 cells assessed as MMP1 protein level by ELISA relative to Dexamethasone; assay type: cell-based; design: scale not given: the % may be the effect or the level left
T2 sequence (whole entry): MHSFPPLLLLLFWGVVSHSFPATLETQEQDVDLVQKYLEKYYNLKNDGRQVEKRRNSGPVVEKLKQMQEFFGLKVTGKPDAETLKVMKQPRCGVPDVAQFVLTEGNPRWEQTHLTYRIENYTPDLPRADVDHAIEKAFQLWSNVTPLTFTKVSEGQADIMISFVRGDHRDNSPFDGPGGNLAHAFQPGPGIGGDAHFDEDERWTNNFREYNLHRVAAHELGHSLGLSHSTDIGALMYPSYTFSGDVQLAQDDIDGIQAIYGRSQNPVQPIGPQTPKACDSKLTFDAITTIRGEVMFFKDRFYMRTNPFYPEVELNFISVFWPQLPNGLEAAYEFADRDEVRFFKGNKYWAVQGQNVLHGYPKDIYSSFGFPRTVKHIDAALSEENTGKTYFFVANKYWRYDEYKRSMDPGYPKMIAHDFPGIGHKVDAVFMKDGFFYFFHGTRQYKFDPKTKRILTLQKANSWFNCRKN

Glucocorticoid receptor = target: T3, Glucocorticoid receptor (Homo sapiens, UniProt P04150)
T3 sequence (P04150 whole entry): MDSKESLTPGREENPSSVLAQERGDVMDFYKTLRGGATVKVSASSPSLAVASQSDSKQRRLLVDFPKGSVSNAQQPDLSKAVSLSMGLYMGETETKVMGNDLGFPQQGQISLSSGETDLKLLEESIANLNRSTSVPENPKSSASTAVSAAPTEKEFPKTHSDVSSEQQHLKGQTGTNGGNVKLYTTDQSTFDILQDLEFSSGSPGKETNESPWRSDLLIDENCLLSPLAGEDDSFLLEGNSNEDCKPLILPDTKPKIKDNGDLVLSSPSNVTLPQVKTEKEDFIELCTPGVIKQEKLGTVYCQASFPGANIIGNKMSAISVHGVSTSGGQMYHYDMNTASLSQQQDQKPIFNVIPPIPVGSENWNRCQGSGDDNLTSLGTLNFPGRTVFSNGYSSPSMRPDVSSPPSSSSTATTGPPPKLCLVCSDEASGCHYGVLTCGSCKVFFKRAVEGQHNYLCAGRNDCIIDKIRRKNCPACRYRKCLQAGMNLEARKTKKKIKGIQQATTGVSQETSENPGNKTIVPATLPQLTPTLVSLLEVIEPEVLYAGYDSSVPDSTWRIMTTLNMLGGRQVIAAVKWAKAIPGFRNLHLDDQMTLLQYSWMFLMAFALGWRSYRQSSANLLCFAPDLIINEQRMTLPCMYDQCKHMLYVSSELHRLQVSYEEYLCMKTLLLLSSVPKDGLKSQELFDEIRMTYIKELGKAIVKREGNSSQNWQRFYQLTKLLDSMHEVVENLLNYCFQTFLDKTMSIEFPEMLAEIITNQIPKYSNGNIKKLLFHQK
Description: Inhibition of human glucocorticoid receptor

SMILES	pIC50 (Progesterone receptor)	Activity (Rattus norvegicus) [%]	pEC50 [1]	Activity [2] [%]	pIC50 (Glucocorticoid receptor)
C[C@H]1C[C@H]2[C@@H]3CCC4=CC(=O)C=C[C@]4(C)[C@@]3(F)[C@@H](O)C[C@]2(C)[C@@]1(OC(=O)NC(C)(C)CC(C)(C)C)C(=O)CO	< 6.00	50	6.65	80.3	8.24
C[C@@H](NC(=O)O[C@]1(C(=O)CO)[C@@H](C)C[C@H]2[C@@H]3CCC4=CC(=O)C=C[C@]4(C)[C@@]3(F)[C@@H](O)C[C@@]21C)c1ccccc1	–	92	8.80	87.5	8.28
C[C@H](NC(=O)O[C@]1(C(=O)CO)[C@@H](C)C[C@H]2[C@@H]3CCC4=CC(=O)C=C[C@]4(C)[C@@]3(F)[C@@H](O)C[C@@]21C)c1ccccc1	6.75	49	9.22	93	8.89
C[C@H]1C[C@H]2[C@@H]3CCC4=CC(=O)C=C[C@]4(C)[C@@]3(F)[C@@H](O)C[C@]2(C)[C@@]1(OC(=O)NC12CC3CC(CC(C3)C1)C2)C(=O)CO	–	–	–	84.1	8.24
CCCCNC(=O)O[C@]1(C(=O)CO)[C@@H](C)C[C@H]2[C@@H]3CCC4=CC(=O)C=C[C@]4(C)[C@@]3(F)[C@@H](O)C[C@@]21C	–	31.3	–	98	8.55
COC(=O)[C@H](C)NC(=O)O[C@]1(C(=O)CO)[C@@H](C)C[C@H]2[C@@H]3CCC4=CC(=O)C=C[C@]4(C)[C@@]3(F)[C@@H](O)C[C@@]21C	–	103	7.33	107	7.54
CCC(C)NC(=O)O[C@]1(C(=O)CO)[C@@H](C)C[C@H]2[C@@H]3CCC4=CC(=O)C=C[C@]4(C)[C@@]3(F)[C@@H](O)C[C@@]21C (some centres undefined)	–	54	9.52	97.5	9.30
C[C@H]1C[C@H]2[C@@H]3CCC4=CC(=O)C=C[C@]4(C)[C@@]3(F)[C@@H](O)C[C@]2(C)[C@@]1(OC(=O)NCC(C)(C)C)C(=O)CO	–	–	–	44.7	6.45
